Data set [1] concerns MCF7. The data set is described as follows: Anticancer activity against human MCF7 cells assessed as cell growth inhibition incubated for 48 hrs by MTS assay. In kind it is functional, cell-based. Particulars: MCF7, 48 h.
Data set [2] in a line: Cytotoxicity activity against human CCD-1059Sk cells assessed as cell growth inhibition incubated for 48 hrs by MTS assay. Type of data set: toxicity, cell-based.
A short description of the next data set: in vitro. The following applies: human, CCD-1059Sk cells and MCF7 cells.
For data set [3], the system named is HT-29. The data set is described as follows: Anticancer activity against human HT-29 cells assessed as cell growth inhibition incubated for 3 days by MTT assay. Particulars: HT-29, 72 h. Type of data set: functional, cell-based.
For a further data set, the system named is HEK293. The data set is described as follows: Anticancer activity against human HEK293 cells assessed as cell growth inhibition incubated for 3 days by MTT assay. In kind it is functional, cell-based. The following applies: HEK293, 72 h.
In data set [4] the test system is MCF7. The data set is described as follows: Anticancer activity against human MCF7 cells assessed as cell growth inhibition incubated for 3 days by MTT assay. Type of data set: functional, cell-based. Particulars: MCF7, 72 h.
Another data set relates to HCT-116. The data set is described as follows: Anticancer activity against human HCT-116 cells assessed as cell growth inhibition. Type of data set: functional, cell-based.
In another data set the test system is PANC-1. The data set is described as follows: Anticancer activity against human PANC-1 cells assessed as cell growth inhibition incubated for 48 hrs by SRB assay. In kind it is functional. Particulars: Homo sapiens, PANC-1, 48 h.
Data set [5] concerns B16-F10. The data set is described as follows: Anti cancer activity against mouse B16-F10 cells assessed as cell growth inhibition incubated for 40 hrs by Almar Blue stained fluorescence-based assay. Type of data set: functional. Particulars: B16-F10, 40 h.
For another data set, the system named is MDA-MB-231. The data set is described as follows: Anticancer activity against human MDA-MB-231 cells assessed as reduction in cell viability measured after 48 hrs at 150 uM by MTT assay relative to control. In kind it is functional.
A short description of data set [6]: Anticancer activity against human AZ-AHR cells assessed as cell growth inhibition incubate for 24 hrs by MTT assay. Type of data set: functional, cell-based.
The subject of data set [7] is HT-29. The data set is described as follows: Anticancer activity against human HT-29 cells assessed as cell growth inhibition incubated for 24 hrs by MTT assay. Type of data set: functional, cell-based. The following applies: Homo sapiens, HT-29, 24 h.
The next data set has as its system Ishikawa. The data set is described as follows: cells. The following applies: Homo sapiens.
For another data set, the target named is T1, Aromatase (Homo sapiens, UniProt P11511).
T1 sequence (P11511 whole entry): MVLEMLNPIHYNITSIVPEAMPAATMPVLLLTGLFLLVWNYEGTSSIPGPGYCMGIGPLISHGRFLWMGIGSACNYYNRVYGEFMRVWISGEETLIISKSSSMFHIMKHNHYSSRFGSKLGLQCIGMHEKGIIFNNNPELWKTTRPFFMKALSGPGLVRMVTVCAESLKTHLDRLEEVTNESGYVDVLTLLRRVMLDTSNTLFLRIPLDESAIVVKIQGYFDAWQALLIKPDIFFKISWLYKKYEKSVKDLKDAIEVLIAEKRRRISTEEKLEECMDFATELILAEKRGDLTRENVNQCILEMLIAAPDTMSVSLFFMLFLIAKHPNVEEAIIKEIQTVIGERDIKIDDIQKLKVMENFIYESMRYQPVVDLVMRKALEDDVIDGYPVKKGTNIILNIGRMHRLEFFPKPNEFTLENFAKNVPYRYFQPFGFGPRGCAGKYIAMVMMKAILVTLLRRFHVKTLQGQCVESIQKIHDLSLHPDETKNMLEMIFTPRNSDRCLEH

A further data set deals with CYP1A (Homo sapiens, UniProt P04798+P05177). The data set is described as follows: Inhibtion of CYP1A (unknown origin). Type of data set: ADME, protein assay.
In the next data set the test system is SK-BR-3. The data set is described as follows: Anticancer activity against human SK-BR-3 cells assessed as cell growth inhibition incubated for 24 hrs by MTT assay. In kind it is functional, cell-based. The following applies: SK-BR-3, 24 h.
The next data set relates to HepG2. The data set is described as follows: Anticancer activity against human HepG2 cells assessed as cell growth inhibition incubated for 24 hrs by MTT assay. In kind it is functional, cell-based. Particulars: HepG2, 24 h.
A short description of data set [8]: Anticancer activity against Lung adenocarcinoma cell line assessed as cell growth inhibition measured after 72 hrs by MTT assay. In kind it is functional, cell-based. Particulars: Lung adenocarcinoma cell line, 72 h.
The next data set relates to HeLa. The data set is described as follows: Anticancer activity against human HeLa cells assessed as cell growth inhibition measured after 72 hrs by MTT assay. Type of data set: functional, cell-based. Particulars: Homo sapiens, HeLa, 72 h; read-out: IC50.
The test system of another data set is A549. The data set is described as follows: Anticancer activity against human A549 cells assessed as cell growth inhibition measured after 72 hrs by MTT assay. In kind it is functional, cell-based. Particulars: Homo sapiens, A549, 72 h.
Data set [9] has as its system B16-F10. The data set is described as follows: Anti cancer activity against mouse B16-F10 cells assessed as cell growth inhibition incubated for 40 hrs by Almar Blue stained fluorescence-based assay relative to control. Type of data set: functional.

Description for Aromatase: Inhibition of human Aromatase
Description for Ishikawa: Anti-tumor activity against human ishikawa cells assessed as anti-estrogenic potential
Description for in vitro: Selectivity index, ratio of IC50 for cytotoxicity against CCD-1059Sk cells to IC50 for antiproliferative activity against MCF7 cells

Take `COc1cc(/C=N/NC(=O)/C=C/c2ccc(O)c(OC)c2)cc(OC)c1`: in the data set with MCF7 [1], the concentration for half-maximal inhibition (IC50) was found to be 43 µM. In data set [2], the concentration for half-maximal inhibition (IC50) at 48 h is 130 µM. Also, the selectivity ratio in “in vitro” came to 6.81.
Regarding `OC[C@H]1O[C@@H](Oc2cc(O)cc(/C=C/c3ccc(O)cc3)c2)[C@H](O)[C@@H](O)[C@@H]1O` [PICEID], the IC50 in the data set on HT-29 [3] was 18 µM; with HEK293, over 100 µM; in the data set with MCF7 [4], 38 µM.
As for `CCCCCCCC(=O)OC[C@H]1O[C@@H](Oc2cc(O)cc(/C=C/c3ccc(O)cc3)c2)[C@H](O)[C@@H](O)[C@@H]1O`, the IC50 is 39 µM in the data set on HT-29 [3], over 100 µM in the data set with HEK293 and 52 µM in the data set on MCF7 [4].
Regarding `COc1ccc(/C=C/c2cc(OC)c(OC)c(OC)c2)cc1`, the IC50 in the data set with HCT-116 turned out to be 1.1 µM.
Take `COc1ccc(-c2nnc(SCC(=O)Oc3ccc(/C=C/c4cc(OC)cc(OC)c4)cc3)o2)cc1`: the GI50 in the data set on PANC-1 was 0.064 µM.
Still for that read-out and setting: the same measure for `COc1cc(/C=C/c2ccc(NC(=O)CSc3nnc(-c4c(F)cccc4F)o3)cc2)cc(OC)c1`: 0.064 µM.
Consider `COc1ccc(/C=C\c2cc(OC)c(OC)c(OC)c2)c(OC)c1`, for which the IC50 in the data set on B16-F10 [5] amounted to 1 µM.
As for `CC(C)(C)C(=O)Oc1ccc(/C=C/c2cc(O)cc(O)c2)cc1`, the Activity in the data set with MDA-MB-231 amounted to 7.7%.
For `Oc1cc(O)cc(/C=C\c2ccc(O)c(O)c2)c1`, in [6], the concentration for half-maximal inhibition (IC50) came out at 7.8 µM.
With `COc1ccc(/C=C/c2cc(OC)cc(OC)c2)cc1` [TRISMETHOXYRESVERATROL], the IC50 with HT-29 [7] is 14 µM; in the data set on Ishikawa it was 12.6 µM; on Aromatase it was 13.6 µM; in the data set on HCT-116, 1.1 µM; at CYP1A, 0.003 µM; in the data set on SK-BR-3, 112 µM. Besides, the IC50 in the data set with HepG2 was over 100 µM.
Take `COc1cc(/C=C/c2ccc(NC(=O)CSc3nnc(-c4ccc(F)cc4)o3)cc2)cc(OC)c1`: in the data set with PANC-1, the GI50 is 0.064 µM.
Consider `O=S(=O)(O)Oc1ccc(/C=C/c2cc(O)cc(OS(=O)(=O)O)c2)cc1`, for which the IC50 in the data set on HT-29 [3] was 56 µM; in the data set on HEK293, over 100 µM; in the data set on MCF7 [4] it was 26 µM.
As to `CCCC(=O)Oc1ccc(/C=C/c2cc(O)cc(O)c2)cc1`, the Activity in the data set with MDA-MB-231 is 14.14%.
Regarding `COc1cc(/C=C/c2ccc(NC(=O)CSc3nnc(-c4ccc(C)cc4)o3)cc2)cc(OC)c1`, the concentration for 50% growth inhibition (GI50) in the data set with PANC-1 was found to be 0.064 µM.
Consider `CC(C)CC(=O)Oc1ccc(/C=C/c2cc(OC(=O)CC(C)C)cc(OC(=O)CC(C)C)c2)cc1`, for which the IC50 (in [8]; in the data set with HeLa; in the data set on A549) was 4.9 µM throughout.
With `COc1cc(/C=C/c2ccc(OC(=O)CSc3nnc(-c4ccc(C(F)(F)F)cc4)o3)cc2)cc(OC)c1`, the GI50 with PANC-1 was found to be 0.064 µM.
As for `COc1ccc(/C=C\c2ccc(OC)c(OC)c2)cc1` [7Z-3,4,4'-TRIMETHOXYSTILBENE], the IC50 in the data set with B16-F10 [5] was found to be 1 µM.
With `COc1cc(/C=C\c2ccc(OC)c(OC)c2)cc(OC)c1` [(Z)-3,4,3',5'-TETRAMETHOXYSTILBENE], the “inhibition (INH)” value in the data set with B16-F10 [9] is on record as 80%. Moreover, the IC50 in the data set with B16-F10 [5] was 1 µM.
In the case of `COc1ccc(/C=C/c2ccc(OC)c(OC)c2)cc1`, the IC50 with B16-F10 [5] came out at 1 µM.
Consider `COc1cc(/C=C/c2ccc(NC(=O)CSc3nnc(-c4ccc(C(F)(F)F)cc4)o3)cc2)cc(OC)c1`, for which the GI50 in the data set on PANC-1 came to 0.064 µM.
As for `O=S(=O)(O)Oc1cc(O)cc(/C=C/c2ccc(O)cc2)c1`, the IC50 with HT-29 [3] was 115 µM; with HEK293 it was over 100 µM; in the data set on MCF7 [4], 17 µM.
As for `COc1cc(/C=C/c2ccc(OC(=O)CSc3nnc(-c4c(F)cccc4F)o3)cc2)cc(OC)c1`, the GI50 with PANC-1 was 0.064 µM.
On to `Oc1cc(O)cc(/C=C/c2ccc(O)c(O)c2)c1` [PICEATANNOL], for which the values for the IC50 (with HCT-116; in data set [6]) were 5 µM and 4.5 µM, respectively.
On to `COc1cc(/C=C/c2ccc(O[C@@H]3O[C@H](CO)[C@@H](O)[C@H](O)[C@H]3O)cc2)cc(O[C@@H]2O[C@H](CO)[C@@H](O)[C@H](O)[C@H]2O)c1`, for which the IC50 is 45 µM in the data set with HT-29 [3], over 100 µM in the data set on HEK293 and 78 µM with MCF7 [4].
